In ChEMBL document CHEMBL3885861, “Open TG-GATES”:

Species on record: Rattus norvegicus
Test: Open TG-GATES - Regimen: Single
Format: toxicity, organism-based, Sprague-Dawley
Design: regimen Single, gender Male, age 6 weeks
Conditions: in vivo, po, 100 mg/kg, route gavage, dose level Middle; for APTT / Bas / Eos / Fbg / Hb / Ht / Lym / MCH / MCHC / MCV / Mono / Neu / PT / Plat / RBC / Ret / WBC: tissue Blood; for KIDNEY_L / KIDNEY_R / KIDNEY_TOTAL: tissue Kidney; for LIVER: tissue Liver; for A/G / ALP / ALT / AST / BUN / CRE / Ca / Cl / DBIL / GLC / IP / K / LDH / Na / PL / RALB / TBIL / TC / TG / TP / gamma-GTP: tissue Plasma

## NC(=O)N/N=C/c1ccc([N+](=O)[O-])o1 [NITROFURAZONE]
3 h
  TERMINAL_BW: 183.7 g
  APTT: 16.6 s
  Bas: 0.2%
  Eos: 1%
  Fbg: 235.8 mg/dL
  Hb: 12.4 g/dL
  Ht: 38.5%
  Lym: 73.4%
  MCH: 21.7 pg
  MCHC: 32.3%
  MCV: 67.2 fL
  Mono: 5.2%
  Neu: 19.6%
  PT: 14.8 s
  Plat: 123.7 x10_4/uL
  RBC: 572.4 x10_4/ul
  Ret: 11.4%
  WBC: 71.3 x10_2/uL
  KIDNEY_L: 0.8 g
  KIDNEY_R: 0.8 g
  KIDNEY_TOTAL: 1.6 g
  LIVER: 7.7 g
  A/G: 0.9
  ALP: 1361.8 IU/L
  ALT: 41.2 IU/L
  AST: 74.8 IU/L
  BUN: 11.8 mg/dL
  CRE: 0.2 mg/dL
  Ca: 11.3 mg/dL
  Cl: 104.8 meq/L
  DBIL: 0.006 mg/dL
  GLC: 177.6 mg/dL
  IP: 8.8 mg/dL
  K: 4.3 meq/L
  LDH: 51.6 IU/L
  Na: 140.8 meq/L
  PL: 127.6 mg/dL
  RALB: 2.4 g/dL
  TBIL: 0.06 mg/dL
  TC: 73.4 mg/dL
  TG: 29.8 mg/dL
  TP: 5.2 g/dL
  gamma-GTP: 1.2 IU/L
6 h
  TERMINAL_BW: 182.2 g
  APTT: 16 s
  Bas: 0%
  Eos: 1%
  Fbg: 272.8 mg/dL
  Hb: 12.8 g/dL
  Ht: 40%
  Lym: 71.2%
  MCH: 21.3 pg
  MCHC: 32%
  MCV: 66.4 fL
  Mono: 3.2%
  Neu: 23.8%
  PT: 14.6 s
  Plat: 112.7 x10_4/uL
  RBC: 602 x10_4/ul
  Ret: 10.1%
  WBC: 85.4 x10_2/uL
  KIDNEY_L: 0.8 g
  KIDNEY_R: 0.8 g
  KIDNEY_TOTAL: 1.7 g
  LIVER: 7.3 g
  A/G: 0.9
  ALP: 1451.4 IU/L
  ALT: 41.4 IU/L
  AST: 74 IU/L
  BUN: 8.6 mg/dL
  CRE: 0.2 mg/dL
  Ca: 11.3 mg/dL
  Cl: 105.2 meq/L
  DBIL: 0.01 mg/dL
  GLC: 162.4 mg/dL
  IP: 9.8 mg/dL
  K: 3.8 meq/L
  LDH: 85.8 IU/L
  Na: 142.4 meq/L
  PL: 146.6 mg/dL
  RALB: 2.4 g/dL
  TBIL: 0.072 mg/dL
  TC: 89.4 mg/dL
  TG: 25.8 mg/dL
  TP: 5.2 g/dL
  gamma-GTP: 1.2 IU/L
9 h
  TERMINAL_BW: 176.6 g
  APTT: 15.8 s
  Bas: 0%
  Eos: 1%
  Fbg: 270.8 mg/dL
  Hb: 13.5 g/dL
  Ht: 41.4%
  Lym: 72.5%
  MCH: 21.6 pg
  MCHC: 32.4%
  MCV: 66.6 fL
  Mono: 2.8%
  Neu: 22.8%
  PT: 14.8 s
  Plat: 103.9 x10_4/uL
  RBC: 622.2 x10_4/ul
  Ret: 10.2%
  WBC: 69.6 x10_2/uL
  KIDNEY_L: 0.8 g
  KIDNEY_R: 0.8 g
  KIDNEY_TOTAL: 1.6 g
  LIVER: 7.2 g
  A/G: 0.9
  ALP: 1273.8 IU/L
  ALT: 39 IU/L
  AST: 74.5 IU/L
  BUN: 9 mg/dL
  CRE: 0.2 mg/dL
  Ca: 10.9 mg/dL
  Cl: 104.5 meq/L
  DBIL: 0.0175 mg/dL
  GLC: 165 mg/dL
  IP: 11.4 mg/dL
  K: 4 meq/L
  LDH: 69.2 IU/L
  Na: 142.2 meq/L
  PL: 149.5 mg/dL
  RALB: 2.4 g/dL
  TBIL: 0.0675 mg/dL
  TC: 83.5 mg/dL
  TG: 38.8 mg/dL
  TP: 5.1 g/dL
  gamma-GTP: 1.2 IU/L
24 h
  TERMINAL_BW: 185.1 g
  APTT: 15.7 s
  Bas: 0%
  Eos: 0.6%
  Fbg: 296 mg/dL
  Hb: 13.1 g/dL
  Ht: 40.5%
  Lym: 83.4%
  MCH: 21.8 pg
  MCHC: 32.4%
  MCV: 67.2 fL
  Mono: 3%
  Neu: 12.2%
  PT: 14.8 s
  Plat: 109 x10_4/uL
  RBC: 602 x10_4/ul
  Ret: 9.3%
  WBC: 90.2 x10_2/uL
  KIDNEY_L: 0.8 g
  KIDNEY_R: 0.8 g
  KIDNEY_TOTAL: 1.7 g
  LIVER: 8.6 g
  A/G: 0.9
  ALP: 1441.6 IU/L
  ALT: 44.6 IU/L
  AST: 78.4 IU/L
  BUN: 14 mg/dL
  CRE: 0.2 mg/dL
  Ca: 11 mg/dL
  Cl: 103.6 meq/L
  DBIL: 0.016 mg/dL
  GLC: 168.8 mg/dL
  IP: 8.5 mg/dL
  K: 4 meq/L
  LDH: 71.6 IU/L
  Na: 140.6 meq/L
  PL: 140.6 mg/dL
  RALB: 2.5 g/dL
  TBIL: 0.058 mg/dL
  TC: 77.6 mg/dL
  TG: 73.8 mg/dL
  TP: 5.4 g/dL
  gamma-GTP: 1 IU/L
